Results published in article PMC12810539, “EGFR-targeted gadolinium contrast agents for enhanced molecular magnetic resonance imaging of tumors” (The Journal of Biological Chemistry, 2025).

What was measured:
[1] = tested on: MDA-MB-231 tumor xenografts; assay: In vivo biodistribution: tumor Gd content (ICP-MS); conditions: SCID mice, mean ± SD; for Gd content in the MDA-MB-231 tumor tissues (peak): 4 h after single i.v. 50 μM Gd/kg
Description: The 6- to 8-week-old male non-obese diabetic (NOD)/severe-combined immunodeficient (SCID) mice were used to establish MDA-MB-231 (EGFR-overexpressing) and U138 MG (non-EGFR-overexpressing) xenograft models ([35]). The mice were obtained from the Experimental Animal Center of Tongji Medical College, Huazhong University of Science and Technology, and all the experimental procedures involving animals were further approved by the Animal Care and Use Committee of Huazhong University of Science and Technology. The mice were housed separately in polycarbonate cages and provided with food and water. Tumors were grown under the skin by s.c. injection of 1 × 10^6-3 × 10^6 cells. The mice were randomized into groups for the biodistribution assay and MR imaging in vivo when the xenografts reached 5 to 7 mm in diameter. All procedures were approved by the Institutional Animal Care and Use Committee of Huazhong University of Science and Technology (approval no.270193).
The tumor-bearing SCID mice were randomly divided into groups, with 6 animals in each group, an injected via the tail vein with 50 μM Gd/kg EBP-Gd-DO3A, EBP-(Gd-DO3A)3, or Gadovist. At the selected time points (0.25, 0.5, 1, 2, 4, 8, 24, and 48 h) after injection, blood was collected and centrifuged to separate the plasma. Then, organ and tissue samples, including the kidneys, liver, heart, and tumor, were collected and weighed. The tissue samples were liquefied for 1 week and then transferred into centrifuge tubes and centrifuged at 14,000 rpm for 5 min. The resulting supernatants were diluted tenfold with deionized water and centrifuged again under the same conditions. The Gd concentration in the samples was measured by ICP-MS ([36]).

[2] = tested on: SGC-7901 cells; assay: Cellular Gd content after incubation (cell binding assay, ICP-MS); format: cell-based, human; conditions: SGC-7901, 50 μM Gd, 37 °C, mean ± SD (n = 6)
Description: (§1) The binding of EBP-Gd-DO3A and EBP-(Gd-DO3A)3 to the receptor on MDA-MB-231, A549, SGC-7901, SW480, and U138 MG cells was compared with that of Gadovist. The cells were seeded into 100 mm × 20 mm cell culture dishes at a density of approximately 1 × 10^6 cells per dish and incubated with EBP-Gd-DO3A, EBP-(Gd-DO3A)3 or Gadovist at a Gd concentration of 50 μM for 1 h or 12 h at 37 °C. After incubation, the cells were washed once with PBS followed by mild acidic buffer (50 mM glycine, 150 mM NaCl (pH 3.0)) at 4 °C for 5 min. Then, the cells were washed twice with PBS, and the cellular Gd content was measured by ICP-MS.
(§2) Cells were seeded into 100 mm×20 mm cell culture dishes at a density of approximately 1×10^6 cells per dish and incubated with EBP-Gd-DO3A, EBP-(Gd-DO3A)3 or Gadovist® at Gd concentrations of 50 μM at 37°C for the indicated time points. The Gd content in the cell lysates was quantified by ICP-MS. The values are presented as the mean ± SD (n = 6).

[3] = tested on: U138MG cells; assay: as above; format: cell-based, human; conditions: U138MG (non-EGFR-overexpressing), 50 μM Gd, 37 °C, mean ± SD (n = 6)
Description: as §1, §2

[4] = tested on: SW480 cells; assay: as above; format: cell-based, human; conditions: SW480, 50 μM Gd, 37 °C, mean ± SD (n = 6)
Description: as §1, §2

[5] = tested on: MDA-MB-231 cells; assay: as above; format: cell-based, human; conditions: MDA-MB-231 (EGFR-overexpressing), 50 μM Gd, 37 °C, mean ± SD (n = 6)
Description: as §1, §2

[6] = tested on: A549 cells; assay: as above; format: cell-based, human; conditions: A549, 50 μM Gd, 37 °C, mean ± SD (n = 6)
Description: as §1, §2

[7] = Longitudinal and transverse relaxivity at 3T MRI; format: physicochemical; conditions: in water, 37 °C, slope of 1/T1 versus Gd concentration (0-0.5 mM)
Description: The EBP-Gd-DO3A and EBP-(Gd-DO3A)3 conjugates were confirmed by matrix-assisted laser desorption/ionization time-of-flight (MALDI-TOF) mass spectrometry (Applied Biosystems) in a linear mode with 2,5-dihydroxybenzoic acid (2,5-DHB) as the matrix. The Gd content in the conjugates was determined by ICP-MS (Thermo Fisher Scientific) ([31]). […] Serial dilutions of EBP-Gd-DO3A, EBP-(Gd-DO3A)3, and Gadovist were prepared in water at Gd concentrations of 0.5, 0.25, 0.125, 0.0625, 0.03125, and 0 mM. The relaxivity measurements were performed on a 3T MRI scanner (Trio, Siemens). T1 was measured using an inversion recovery method with a variable inversion time ranging from 50 to 1750 ms. T2 was measured using a Carr-Purcell-Meiboom-Gill sequence with 500 echoes collected. The relaxivities (r1 and r2) of the agents were calculated from the slopes of the plots of 1/T1 and 1/T2 versus the Gd concentrations.

[8] = biological target: T1, EGFR (Homo sapiens, UniProt P00533); assay: EGFR inhibition assay (competitive cell binding with anti-EGFR antibody C225); format: cell-based; conditions: all tested cell lines, 5 μg/ml C225 preincubation 12 h, then 50 μM Gd for 1 h, ICP-MS
T1 construct: endogenous in cells; host or cells: MDA-MB-231, A549, SGC-7901, SW480, U138 MG (human tumour cell lines, CCTCC)
Description: To further verify the receptor-binding affinity and specificity of EBP-Gd-DO3A and EBP-(Gd-DO3A)3, a competitive cell-binding assay was carried out. MDA-MB-231, A549, SGC-7901, SW480, and U138 MG cells were preincubated with fresh serum-free medium containing 5 μg/ml anti-EGFR monoclonal antibody C225 (ImClone Systems, Inc., New York, NY) for 12 h at 37 °C. The culture supernatant was removed from the resulting solution, followed by the addition of EBP-Gd-DO3A, EBP-(Gd-DO3A)3, or Gadovist at a Gd concentration of 50 μM for the indicated time points. The cellular Gd content was measured by ICP-MS as described above, and the C225-induced reduction in the cellular Gd accumulation was used to calculate an inhibition index of cellular Gd uptake ([34]).

[9] = 24 h after single i.v. 50 μM Gd/kg

Molecule	Gd content in the MDA-MB-231 tumor tissues ([1]; 0.5 h after single i.v. 50 μM Gd/kg) [nM/g tissue]	Gd content in the MDA-MB-231 tumor tissues ([1]; 2 h after single i.v. 50 μM Gd/kg) [nM/g tissue]	Gd content in the MDA-MB-231 tumor tissues [1, 9]	Concentration of cellular Gd ([2]; 1 h) [μM/10^6 cells]	Concentration of cellular Gd ([2]; 12 h) [μM/10^6 cells]	Concentration of cellular Gd ([3]; 1 h) [μM/10^6 cells]	Concentration of cellular Gd ([3]; 12 h) [μM/10^6 cells]	Concentration of cellular Gd ([4]; 1 h) [μM/10^6 cells]	Concentration of cellular Gd ([4]; 12 h) [μM/10^6 cells]	Concentration of cellular Gd ([5]; 1 h) [μM/10^6 cells]	Concentration of cellular Gd ([5]; 12 h) [μM/10^6 cells]	Concentration of cellular Gd ([6]; 1 h) [μM/10^6 cells]	Concentration of cellular Gd ([6]; 12 h) [μM/10^6 cells]	longitudinal relaxivity (r1) [7] [mM⁻¹ s⁻¹]	cellular Gd accumulation with versus without C225 pretreatment [8]	Gd content in the MDA-MB-231 tumor tissues (peak) [1] [nM/g tissue]
O=C([O-])CN1CCN(CC(=O)[O-])CCN([C@H](CO)[C@H](O)CO)CCN(CC(=O)[O-])CC1.[Gd+3] (racemic) [Gadovist, reference compound]	3.36 ± 0.91	1.26 ± 0.46	no detectable Gd	0.15 ± 0.05	0.16 ± 0.03	0.20 ± 0.04	0.24 ± 0.05	0.19 ± 0.07	0.20 ± 0.07	0.18 ± 0.06	0.13 ± 0.02	0.25± 0.05	0.18 ± 0.04	3.14	No significant difference	
CMYIEALDKYAC [EBP-(Gd-DO3A)3]			19.42 ± 1.76 nM/g tissue	1.01± 0.08	2.31 ± 0.14	0.15 ± 0.04	0.74 ± 0.17	1.05 ± 0.09	2.65 ± 0.11	1.17 ± 0.12	2.79 ± 0.18	1.04 ± 0.06	2.66 ± 0.15	7.24	reduced	30.70 ± 1.90
CMYIEALDKYAC [EBP-Gd-DO3A]			9.95 ± 1.85 nM/g tissue	0.35 ± 0.04	1.12 ± 0.16	0.09 ± 0.01	0.25 ± 0.07	0.31 ± 0.06	1.01 ± 0.13	0.43 ± 0.05	1.16 ± 0.10	0.37 ± 0.07	1.24 ± 0.19	5.08	reduced	17.70 ± 2.10
